For 13 compounds, IC50 results are on record in patent US8314094B2, “Benzoxazinone derivative” (MSD K.K, priority 2007, dated 2012).

One may read the IC50 as the point on the concentration scale where inhibition reaches its midpoint. A high value points to lower potency.

The assay has as its target T1, human LCE (Homo sapiens, UniProt Q9H5J4).
T1 sequence (Q9H5J4 1-265): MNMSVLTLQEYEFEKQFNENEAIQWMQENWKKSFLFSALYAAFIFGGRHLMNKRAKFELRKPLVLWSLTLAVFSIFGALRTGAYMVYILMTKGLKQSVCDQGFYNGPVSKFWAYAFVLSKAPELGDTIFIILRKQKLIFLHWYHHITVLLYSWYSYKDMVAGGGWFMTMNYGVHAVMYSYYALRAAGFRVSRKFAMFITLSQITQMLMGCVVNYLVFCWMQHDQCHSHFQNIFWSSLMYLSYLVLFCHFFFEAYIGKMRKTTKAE
As to the kind of experiment: LCE enzymatic activity inhibition test. Type of assay: biochemical. The following applies: human LCE enzyme, palmitoyl-CoA and [14C]-malonyl-CoA as substrates, pH 6.5, 37° C. for 90 minutes. As for the experimental part:
An LCE enzymatic activity inhibition test was carried out by a modified method of Moon (J. Biol. Chem., Vol. 276, pp. 45358-45366, (2001)) et al. That is, the diluted test compound was added to a 96-well assay plate (Corning, 96-Well Assay Block) in an amount of 1.0 μL per well, and thereafter, 50 μL of a phosphate buffer solution (a 100 mM potassium phosphate buffer solution (pH 6.5)), 25 μL of a substrate solution (a 100 mM potassium phosphate buffer solution (pH 6.5), 4.0 μM rotenone, 80 μM fatty acid-free bovine serum albumin, 160 μM palmitoyl-CoA, 80 μM malonyl-CoA, 3.5 μM [^14C]-malonyl-CoA (1.92 GBq/mmol, manufactured by Amersham, Inc.)) was added to each well, and further, 25 μL of an enzyme solution (a 100 mM potassium phosphate buffer solution (pH 6.5), 100 μg/mL human LCE) was added thereto. Then, the upper part of the plate was hermetically closed with a seal member, and the plate was incubated at 37° C. for 90 minutes while gently shaking and stirring. Thereafter, to each well, 100 μL of 5 N HCl was added and the assay plate was stirred at room temperature for 5 minutes, whereby the enzymatic reaction was stopped and also acyl-CoA was hydrolyzed. Thereafter, the enzymatic reaction solution in each well was adsorbed to each well of a 96-well GF/C filter plate (PerkinElmer, Unifilter 96GF/C) through which water had been passed in advance, and then, each well was washed with water to remove unadsorbed malonyl-CoA and the GF/C filter plate was dried at 50° C. for 60 minutes. Thereafter, to each well, 30 μL of a scintillator (PerkinElmer, Microscinti 0) was added and the upper part of the plate was sealed, and the radioactivity of the fixed [^14C] was measured using a microplate scintillation counter (PerkinElmer, Top Count) from which the enzymatic activity was determined The human LCE enzyme inhibitory activity of the test compound was calculated using the radioactivity obtained from a well to which DMSO containing no test compound is added as a control.
As to `O=C1Nc2ccc(-c3cc[nH]n3)cc2C(CNS(=O)(=O)c2ccccn2)(C(F)(F)F)O1` (single isomer, unassigned) [Example 151, N-{[(4S*)-2-oxo-6-(1H-pyrazol-3-yl)-4-(trifluoromethyl)-1,4-dihydro-2H-3,1-benzoxazin-4-yl]methyl}pyridine-2-sulfonamide], the IC50 turned out to be 0.016 µM.
As for `O=C1Nc2ccc(-c3ccco3)cc2C(CNC(=O)c2ccc(F)cc2)(C(F)(F)F)O1` (stereo not shown) [Example 146, 4-fluoro-N-{[6-(2-furyl)-2-oxo-4-(trifluoromethyl)-1,4-dihydro-2H-3,1-benzoxazin-4-yl]methyl}benzamide], the figure is 0.014 µM.
Under `CN1CCN(c2ccc3c(c2)C(CNC(=O)c2ccc(F)cc2)(C(F)(F)F)OC(=O)N3)C1=O` (stereo not shown) [Example 174, 4-fluoro-N-{[6-(3-methyl-2-oxazolidin-1-yl)-2-oxo-4-(trifluoromethyl)-1,4-dihydro-2H-3,1-benzoxazin-4-yl]methyl}benzamide] stands 0.0053 µM.
As for `O=C1Nc2ccc(-c3ccn[nH]3)cc2C(CNC(=O)c2ccc(F)cc2)(C(F)(F)F)N1` (single isomer, unassigned) [Example 182, 4-fluoro-N-{[(4S*)-2-oxo-6-(1H-pyrazol-5-yl)-4-(trifluoromethyl)-1,2,3,4-tetrahydroquinazolin-4-yl]methyl}benzamide], the figure is 0.0066 µM; as for `O=C1Nc2ccc(Cl)cc2C(CNC(=O)c2ccc(F)cc2)(C(F)(F)F)N1` (single isomer, unassigned) [Example 187, N-{[(4S*)-6-chloro-2-oxo-4-(trifluoromethyl)-1,2,3,4-tetrahydroquinazolin-4-yl]methyl}4-fluorobenzamide], 0.045 µM; as for `O=C1Nc2ccc(Cl)cc2C(CCCNS(=O)(=O)c2ccccn2)(C(F)(F)F)O1` (single isomer, unassigned) [Example 119, N-{3-[(4R*)-6-chloro-2-oxo-4-(trifluoromethyl)-1,4-dihydro-2H-3,1-benzoxazin-4-yl]propyl}pyridine-2-sulfonamide], 0.128 µM.
In the case of `O=C1Nc2ccc(Cl)cc2C(CCCNC(=O)c2ccc(F)cc2)(C(F)(F)F)O1` (single isomer, unassigned) [Example 33, N-{3-[(4R*)-6-chloro-2-oxo-4-(trifluoromethyl)-1,4-dihydro-2H-3,1-benzoxazin-4-yl]propyl}-4-fluorobenzamide], the IC50 was found to be 0.017 µM.
As for `Cc1ccn(-c2ccc3c(c2)C(CNC(=O)c2ccc(F)cc2)(C(F)(F)F)OC(=O)N3)n1` (stereo not shown) [Example 178, 4-fluoro-N-{[6-(3-methyl-1H-pyrazol-1-yl)-2-oxo-4-(trifluoromethyl)-1,4-dihydro-2H-3,1-benzoxazin-4-yl]methyl}benzamide], the figure is 0.0073 µM.
As for `O=C1Nc2ccc(Cl)cc2C(CCNC(=O)c2ccc(F)cc2)(C(F)(F)F)O1` (single isomer, unassigned) [Example 32, N-{2-[(4R*)-6-chloro-2-oxo-4-(trifluoromethyl)-1,4-dihydro-2H-3,1-benzoxazin-4-yl]ethyl}-4-fluorobenzamide], the figure is 0.022 µM.
As for `O=C1Nc2ccc(Cl)cc2C(CCNS(=O)(=O)c2ccccn2)(C(F)(F)F)O1` (single isomer, unassigned) [Example 120, N-{2-[(4R*)-6-chloro-2-oxo-4-(trifluoromethyl)-1,4-dihydro-2H-3,1-benzoxazin-4-yl]ethyl}pyridine-2-sulfonamide], the figure is 0.0054 µM.
The compound `O=C1Nc2ccc(-c3cccs3)cc2C(CNC(=O)c2ccc(F)cc2)(C(F)(F)F)O1` (stereo not shown) [Example 147, 4-fluoro-N-{[2-oxo-6-(2-thienyl)-4-(trifluoromethyl)-1,4-dihydro-2H-3,1-benzoxazin-4-yl]methyl}benzamide] displayed an IC50 of 0.013 µM.
As for `Cn1cc(-c2ccc3c(c2)C(CNC(=O)c2ccc(F)cc2)(C(F)(F)F)OC(=O)N3)cn1` (single isomer, unassigned) [Example 133, (4S*)-4-fluoro-N-{[6-(1-methyl-1H-pyrazol-4-yl)-2-oxo-4-(trifluoromethyl)-1,4-dihydro-2H-3,1-benzoxazin-4-yl]methyl}benzamide], the figure is 0.119 µM.
Under `O=C1Nc2ccc(-c3cc[nH]n3)cc2C(CNS(=O)(=O)c2ccc(F)cc2)(C(F)(F)F)O1` (single isomer, unassigned) [Example 150, 4-fluoro-N-{[(4S*)-2-oxo-6-(1H-pyrazol-3-yl)-4-(trifluoromethyl)-1,4-dihydro-2H-3,1-benzoxazin-4-yl]methyl}benzenesulfonamide] stands 0.017 µM.
